28 compounds from patent US5716929A (Vertex Pharmaceuticals, Inc., priority 1995, dated 1998) can be followed below.

Square brackets hold non-standard residues; d marks the D form. Peptide text beside a SMILES is read from it. * marks the point of attachment. ξ: configuration not given here. Hyp = O=C(O)[C@@H]1C[C@@H](O)CN1; Tic = O=C(O)[C@@H]1Cc2ccccc2CN1; ξD = NC(CC(=O)O)C(=O)O; Allyl = C=CC*

For one experiment, the target named is T1, interleukin-1β converting enzyme (ICE) (Homo sapiens, UniProt P29466).
T1 sequence (P29466 120-297 limits assumed): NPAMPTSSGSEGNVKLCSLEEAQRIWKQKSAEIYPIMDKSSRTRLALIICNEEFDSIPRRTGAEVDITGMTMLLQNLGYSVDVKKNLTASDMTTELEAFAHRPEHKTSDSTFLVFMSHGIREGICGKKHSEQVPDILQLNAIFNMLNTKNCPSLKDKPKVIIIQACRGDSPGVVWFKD
T1 sequence (P29466 317-404 limits assumed): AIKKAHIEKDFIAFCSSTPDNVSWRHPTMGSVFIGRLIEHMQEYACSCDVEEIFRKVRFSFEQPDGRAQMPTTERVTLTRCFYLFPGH
The experiment is described as follows: Enzyme assay with UV-visible substrate (Succinyl-Tyr-Val-Ala-Asp-pNitroanilide). In kind it is biochemical. Particulars: Example 2 table. On the procedure: 1. Enzyme assay with UV-visible substrate
This assay is run using an Succinyl-Tyr-Val-Ala-Asp-pNitroanilide substrate (SEQ ID NO: 1). Synthesis of analogous substrates is described by L. A. Reiter (Int. J. Peptide Protein Res. 43, 87-96 (1994)). The assay mixture contains: […]
The visible ICE assay is run in a 96-well microtiter plate. Buffer, ICE and DMSO (if inhibitor is present) are added to the wells in the order listed. The components are left to incubate at room temperature for 15 minutes starting at the time that all components are present in all wells. The microtiter plate reader is set to incubate at 37° C. After the 15 minute incubation, substrate is added directly to the wells and the reaction is monitored by following the release of the chromophore (pNA) at 405-603 nm at 37° C. for 20 minutes. A linear fit of the data is performed and the rate is calculated in mOD/min. DMSO is only present during experiments involving inhibitors, buffer is used to make up the volume to 100 μl in the other experiments.
For determination of enzyme inhibition constants (Ki) or the mode of inhibition (competitive, uncompetitive or noncompetitive), the rate data determined in the enzyme assays at varying inhibitor concentrations are computer-fit to standard enzyme kinetic equations (see I. H. Segel, Enzyme Kinetics, Wiley-Interscience, 1975).
Regarding `CC(=O)N[C@@H](Cc1ccc(O)cc1)C(=O)N[C@H](C(=O)N1Cc2ccccc2C[C@H]1C(=O)NC(C=O)CC(=O)O)C(C)C` (stereo partly drawn) [L, N-[2-(N-Acetyl-tyrosinyl-valinyl)-(S)-1,2,3,4-tetrahydroisoquinoline-3-carbonyl]-3-amino-oxobutanoic acid] (Ac-YV[Tic][ξD]-aldehyde), the Ki – broadly, the equilibrium dissociation constant of an inhibitor or competing ligand from its target – stood at 0.014 µM.
As to `C[C@H](NC(=O)c1ccc[nH]1)C(=O)N[C@H](C=O)CC(=O)O` [Compound 36a, (3S)3-[N-(Pyrrole-2-carbonyl)-L-alaninyl]amino-4-oxobutanoic acid], the inhibition constant (Ki) is 4.7 µM.
For `C[C@H](NC(=O)c1cnc(Cc2ccccc2)[nH]1)C(=O)N[C@H](C=O)CC(=O)O` [Compound 33c, (3S)3-[N-(2-Benzylimidazole-4-carbonyl)-L-alaninyl]amino-4-oxobutanoic acid], the affinity corresponds to a Ki of 8.6 µM.
Same read-out and setting: the value for `C[C@H](NC(=O)c1ncc[nH]1)C(=O)N[C@H](C=O)CC(=O)O` [Compound 20a, (3S)3-[N-(Imidazole-2-carbonyl)-L-alaninyl]amino-4-oxobutanoic acid] was 3.2 µM; that for `C[C@H](NC(=O)c1ncc(CCc2ccccc2)[nH]1)C(=O)N[C@H](C=O)CC(=O)O` [Compound 20c, (3S)3-{N-[4-(2-Phenylethyl)imidazole-2-carbonyl]-L-alaninyl}amino-4-oxobutanoic acid] was 0.95 µM.
`C[C@H](NC(=O)c1cnc(CCc2ccccc2)[nH]1)C(=O)N[C@H](C=O)CC(=O)O` [Compound 33a, (3S)3-{N-[2-(2-Phenylethyl)imidazole-4-carbonyl]-L-alaninyl}amino-4-oxobutanoic acid] yielded a Ki of 5.5 µM.

Still in this experiment, the particulars now being: Example 4 table.
In turn, `C[C@H](NC(=O)c1nc(CCCc2ccccc2)c[nH]1)C(=O)N[C@H](C=O)CC(=O)O` [Compound 20d, (3S)3-{N-[4-(3-Phenylpropyl)imidazole-2-carbonyl]-L-alaninyl}amino-4-oxo-butanoic acid] registered a Ki of 0.1 µM.
Compound `Cc1c[nH]c2c(=O)n(CC(=O)N[C@H](C=O)CC(=O)O)cnc12` [Compound 43, (3S)-3-[2-(3,5-Dihydro-7-methyl-4-oxo-4H-pyrrolo[3,2-d]pyrimidin-3-yl)-1-oxo-ethylamino]-4-oxobutanoic acid] displayed a Ki of 20 µM.
The compound `O=C[C@H](CC(=O)O)NC(=O)C1CCc2ncc(NC(=O)c3ccccc3)c(=O)n21` (single isomer, unassigned) [Compound 7b] came in with a Ki of 1.2 µM.
Still for that read-out and setting: the value for `O=C[C@H](CC(=O)O)NC(=O)[C@@H]1CCCN1C(=O)c1nc(CCCc2ccc(O)cc2)c[nH]1` [Compound 21f, (3S)3-{N-[4-[3-(4-Hydroxyphenyl)propyl]imidazole-2-carbonyl]-L-prolinyl}amino-4-oxobutanoic acid] was 0.17 µM; that for `CC(C)[C@H](NC(=O)OCc1ccccc1)C(=O)N[C@@H](C)C(=O)N[C@H](CC(=O)O)C(=O)COCc1c(Cl)cccc1Cl` (mixture of isomers) [Compound 84a, (R,S) N-[N-(Phenylmethyloxy)carbonyl-valinyl-alaninyl]-3-amino-5-(2,6-dichlorophenylmethyloxy)-4-oxo-pentanoic acid] was 0.1 µM; that for `CC(=O)N[C@@H](Cc1ccc(O)cc1)C(=O)N[C@H](C(=O)N[C@@H](C)C(=O)N[C@H](CC(=O)O)C(=O)COCc1c(Cl)cccc1Cl)C(C)C` (mixture of isomers) [Compound 84b, (R,S)N-[N-(Acetyl)tyrosinyl-valinyl-alaninyl]-3-amino-5-(2,6-dichlorophenylmethyloxy)-4-oxo-pentanoic acid] was 0.019 µM.
The same measure, in the same setting: the value for `C[C@H](NC(=O)c1nc(Cc2ccccc2)c[nH]1)C(=O)N[C@H](C=O)CC(=O)O` [Compound 20b, (3S)3-[N-(4-Benzylimidazole-2-carbonyl)-L-alaninyl]amino-4-oxobutanoic acid] was 0.85 µM.
Still for that read-out and setting: the value for `O=C[C@H](CC(=O)O)NC(=O)C1CCc2ncc(NC(=O)c3ccccc3)c(=O)n21` (single isomer, unassigned) [Compound 7a] was 35 µM.
With `O=C[C@H](CC(=O)O)NC(=O)[C@@H]1CCCN1C(=O)c1nc(CCc2ccccc2)c[nH]1` [Compound 21c, (3S)3{N-[4-(2-Phenylethyl)imidazole-2-carbonyl]-L-prolinyl}amino-4-oxobutanoic acid], the affinity corresponds to a Ki of 0.64 µM.
`C[C@H](NC(=O)c1ccc(Cc2ccccc2)[nH]1)C(=O)N[C@H](C=O)CC(=O)O` [Compound 36b, (3S)3-[N-(5-Benzylpyrrole-2-carbonyl)-L-alaninyl]amino-4-oxobutanoic acid] displayed a Ki of 0.8 µM.
On the same count and under the same terms, the value for `O=C[C@H](CC(=O)O)NC(=O)[C@@H]1CCCN1C(=O)c1cc2ccccc2[nH]1` [Compound 39, (3S) 3-[1-(Indole-2-carbonyl)-L-prolinyl]amino-4-oxobutanoic acid] was 2.5 µM; that for `CC(C(=O)N[C@H](C=O)CC(=O)O)n1c(Cc2ccccc2)ccc(NC(=O)CCc2ccccc2)c1=O` (stereo partly drawn) [Compound 54h, 3(S), N(2(R,S))3-(2-(6-Benzyl-1,2-dihydro-2-oxo-3-(3-phenylpropionyl)amino-1-pyridyl)propionylamino)-4-oxobutanoic acid] was 0.97 µM.
Still for that read-out and setting: the value for `COc1ccc(CCCc2c[nH]c(C(=O)N3CCC[C@H]3C(=O)N[C@H](C=O)CC(=O)O)n2)cc1` [Compound 21e, (3S)3-{N-[4-[3-(4-Methoxyphenyl)propyl]imidazole-2-carbonyl]-L-prolinyl}amino-4-oxobutanoic acid] was 0.22 µM; that for `O=C[C@H](CC(=O)O)NC(=O)[C@@H]1CCCN1C(=O)c1nc(CCCc2ccccc2)c[nH]1` [Compound 21d, (3S) 3-{N-[4-(3-Phenylpropyl)imidazole-2-carbonyl]-L-prolinyl}amino-4-oxo-butanoic acid] was 0.24 µM.

The same experiment, now with this note: Example 6 table.
As to `COc1ccc(CCCc2cnc(C(=O)N3C[C@H](Oc4ccccc4)C[C@H]3C(=O)N[C@H](C=O)CC(=O)O)[nH]2)cc1` [Compound 22e, 3(S)-[(1-{5-[3-(4-Methoxyphenyl)propyl]-1H-imidazole-2-carbonyl}-4(R)-phenoxypyrrolidine-2(S)-carbonyl)amino]-4-oxobutanoic acid], the inhibitory constant (Ki) was 0.19 µM.
On the same count and under the same terms, the figure for `O=C[C@H](CC(=O)O)NC(=O)CN1C(=O)[C@@H](NC(=O)CCc2ccccc2)CN(C(=O)CCc2ccccc2)c2ccccc21` [Compound 106b] is 0.2 µM; for `C=CCO[C@@H]1C[C@@H](C(=O)N[C@H](C=O)CC(=O)O)N(C(=O)[C@@H](NC(=O)[C@H](Cc2ccc(O)cc2)NC(C)=O)C(C)C)C1` [Compound 85, N-(N-Acetyl-tyrosinyl-valinyl-(4 (R)-allyloxyprolinyl))-3(S)-amino-4-oxobutanoic acid] (Ac-YV[Hyp](Allyl)D-aldehyde) it is 0.0035 µM; for `CC(=O)N[C@@H](Cc1ccc(O)cc1)C(=O)N[C@H](C(=O)N[C@@H](C)C(=O)N[C@@H](CC(=O)O)C(=O)COCc1ccccc1Cl)C(C)C` [Compound 89, N-Acetyl-(S)-tyrosinyl-(S)-valinyl-(S)-alaninyl-3(S)-amino-5-(2-chlorobenzyloxy)-4-oxo-pentanoic acid] it is 0.018 µM.
On the same count and under the same terms, the figure for `O=C(O)C[C@H](NC(=O)Cn1c(Cc2ccccc2)ccc(NC(=O)CCc2ccccc2)c1=O)C(=O)CO` [Compound 88, N-2-(6-Benzyl-1,2-dihydro-2-oxo-3-(3-phenylpropionyl)amino-1-pyridyl)acetyl-3(S)-amino-5-hydroxy-4-oxo-pentanoic acid] is 0.9 µM.
On to `O=CC(CC(=O)O)NC(=O)CN1C(=O)C(NC(=O)OCc2ccccc2)CN(Cc2ccccc2)C(=O)C1Cc1ccccc1` (stereo not shown) [Compound 121, 3-{2-[2,4-Dibenzyl-3,7-dioxo-6-(N-benzyloxycarbonylamino)-[1,4]diazepan-1-yl]-acetylamino}-4-oxo-butyric acid], for which the affinity corresponds to a Ki of 4.3 µM.
In turn, `CC(C(=O)N[C@H](C=O)CC(=O)O)N1CCN(C(=O)CCc2ccccc2)C[C@H](NC(=O)CCc2ccccc2)C1=O` (mixture of isomers) [Compound 115, 4-Oxo-3(S)-{2(R,S)-[7-oxo-4-(3-phenyl-propionyl)-6(S)-(3-phenyl-propionylamino)-[1,4]diazepan-1-yl]propionylamino}-butyric acid] displayed a Ki of 0.345 µM.
Same read-out and setting: the value for `O=C(O)C[C@H](NC(=O)CN1C(=O)[C@@H](NC(=O)CCc2ccccc2)CN(C(=O)CCc2ccccc2)c2ccccc21)C(=O)c1ncc(-c2c(Cl)cccc2Cl)o1` [Compound 108c, 4-[5-(2,6-Dichlorophenyl)oxazol-2-yl]-4-oxo-3(S)-{2-[2-oxo-5-(3-phenylpropionyl)-3(S)-(3-phenylpropionylamino)-2,3,4,5-tetrahydrobenzo[b][1,4]diazepin-1-yl]-acetylamino}butyric acid] was 0.43 µM.
